Results published in patent publication US6635670B2, “sPLA2 inhibitors” (Eli Lilly and Company, priority 1999, dated 2003).
Read-outs that look alike come from different tables or passages of the source.

Molecular target: T1, recombinant human secreted phospholipase A2 (Homo sapiens, UniProt P14555)
T1 sequence (P14555 21-144): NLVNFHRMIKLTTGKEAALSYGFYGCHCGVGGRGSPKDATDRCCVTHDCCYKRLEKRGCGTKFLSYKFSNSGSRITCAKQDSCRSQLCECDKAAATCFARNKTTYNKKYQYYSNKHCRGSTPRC
Test: chromogenic assay for inhibitors of recombinant human secreted phospholipase A2
Type: biochemical
Description: The following chromogenic assay procedure was used to identify and evaluate inhibitors of recombinant human secreted phospholipase A2. The assay described herein has been adapted for high volume screening using 96 well microtiter plates. A general description of this assay method is found in the article, “Analysis of Human Synovial Fluid Phospholipase A2 on Short Chain Phosphatidylcholine-Mixed Micelles: Development of a Spectrophotometric Assay Suitable for a Microtiterplate Reader”, by Laure J. Reynolds, Lori L. Hughes, and Edward A Dennis, Analytical Biochemistry, 204, pp. 190-197, 1992 (the disclosure of which is incorporated herein by reference):
REACTION BUFFER —CaCl2. 2H2O (1.47 g/L) KCl (7.455 g/L) Bovine Serum Albumin (fatty acid free) (1 g/L) (Sigma A-7030, product of Sigma Chemical Co., St. Louis Mo., USA) TRIS HCl (3.94 g/L) pH 7.5 (adjust with NaOH)
ENZYME BUFFER-0.05 NaOAc.3H2O, pH 4.5 0.2 NaCl Adjust pH to 4.5 with acetic acid DTNB-5,5′-dithiobis-2-nitrobenzoic acid
RACEMIC DIHEPTANOYL THIO-PC racemic 1,2-bis(heptanoylthio)-1,2-dideoxy-sn-glycero-3-phosphorylcholine TRITON X-100™ prepare at 6.249 mg/ml in reaction buffer to equal […].
A measured volume of racemic dipheptanoyl thio PC supplied in chloroform at a concentration of 100 mg/ml is taken to dryness and redissolved in 10 millimolar
TRITON X-100™ nonionic detergent aqueous solution.
Reaction Buffer is added to the solution, then DTNB to give the Reaction Mixture.
The reaction mixture thus obtained contains 1 mM diheptanoly thio-PC substrate, 0.29 mm Triton X-100™ detergent, and 0.12 mm DTMB in a buffered aqueous solution at pH 7.5.
1. Add 0.2 ml reaction mixture to all wells;
2. Add 10 ul test compound (or solvent blank) to appropriate wells, mix 20 seconds;
3. Add 50 nanograms of sPLA2 (10 microliters) to appropriate wells;
4. Incubate plate at 40° C. for 30 minutes;
5. Read absorbance of wells at 405 nanometers with an automatic plate reader.
All compounds were tested in triplicate. Typically, compounds were tested at a final concentration of 5 ug/ml. […] Lack of color development at 405 nanometers evidenced inhibition. Compounds initially found to be active were reassayed to confirm their activity and, if sufficiently active, IC50 values were determined. […] In all cases, % inhibition measured at 405 nanometers generated by enzyme reactions containing inhibitors relative to the uninhibited control reactions was determined. Each sample was titrated in triplicate and result values were averaged for plotting and calculation of IC50 values. IC50 were determined by plotting log concentration versus inhibition values in the range from 10-90% inhibition.

[1] = diheptanoyl thio-PC substrate, pH 7.5, 40° C. for 30 minutes, absorbance at 405 nanometers, read-out: Inhibition of human secreted PLA2 IC50 ± mean deviation (3-4 tests)

SMILES	IC50 [nM]	activity in inhibiting SPLA2 (statement in words)	IC50 [1] [nM]
CCc1c(C(=O)C(N)=O)c2c(OCC(=O)OC)cccc2n1Cc1ccccc1 [Compound 1, [[3-(2-Amino-1,2-dioxoethyl)-2-ethyl-1-(phenylmethyl)-1H-indol-4-yl]oxy]acetic acid methyl ester]	49	highly active	–
CCc1c(C(=O)C(N)=O)c2c(OCC(=O)NCC(=O)OC)cccc2n1Cc1ccccc1 [Compound 2A, N-[2-[[3-(Aminooxoacetyl)-2-ethyl-1-(phenylmethyl)-1H-indol-4-yl]oxy]acetyl]glycine Methyl Ester]	–	–	529
CCc1c(C(=O)C(N)=O)c2c(OCC(=O)N[C@@H](C)C(=O)OC)cccc2n1Cc1ccccc1 [Compound 2B, N-[2-[[3-(Aminooxoacetyl)-2-ethyl-1-(phenylmethyl)-1H-indol-4-yl]oxy]acetyl]-L-alanine Methyl Ester]	–	–	533
CCc1c(C(=O)C(N)=O)c2c(OCC(=O)N[C@@H](CC(C)C)C(=O)OC)cccc2n1Cc1ccccc1 [Compound 2C, N-[2-[[3-(Aminooxoacetyl)-2-ethyl-1-(phenylmethyl)-1H-indol-4-yl]oxy]acetyl]-L-leucine Methyl Ester]	–	–	82
CCc1c(C(=O)C(N)=O)c2c(OCC(=O)N[C@@H](CC(=O)OC)C(=O)OC)cccc2n1Cc1ccccc1 [Compound 2D, N-[2-[[3-(Aminooxoacetyl)-2-ethyl-1-(phenylmethyl)-1H-indol-4-yl]oxy]acetyl]-L-aspartic Acid Dimethyl Ester]	–	–	874
CCc1c(C(=O)C(N)=O)c2c(OCC(=O)N[C@@H](Cc3ccccc3)C(=O)OC)cccc2n1Cc1ccccc1 [Compound 2E, N-[2-[[3-(Aminooxoacetyl)-2-ethyl-1-(phenylmethyl)-1H-indol-4-yl]oxy]acetyl]-L-phenylalanine Methyl Ester]	–	–	666
CCc1c(C(=O)C(N)=O)c2c(OCC(=O)NC(C(=O)OC)C(=O)OC)cccc2n1Cc1ccccc1 [Compound 2F, [2-[[3-(Aminooxoacetyl)-2-ethyl-1-(phenylmethyl)-1H-indol-4-yl]oxy]acetamido]malonic Acid Dimethyl Ester]	–	–	698
CCc1c(C(=O)C(N)=O)c2c(OCC(=O)N[C@H](C(=O)OC)C(C)C)cccc2n1Cc1ccccc1 [Compound 2G, N-[2-[[3-(Aminooxoacetyl)-2-ethyl-1-(phenylmethyl)-1H-indol-4-yl]oxy]acetyl]-L-valine Methyl Ester]	–	–	283
CCc1c(C(=O)C(N)=O)c2c(OCC(=O)N[C@H](C(=O)OC)[C@@H](C)CC)cccc2n1Cc1ccccc1 [Compound 2H, N-[2-[[3-(Aminooxoacetyl)-2-ethyl-1-(phenylmethyl)-1H-indol-4-yl]oxy]acetyl]-L-isoleucine Methyl Ester]	–	–	166
CCc1c(C(=O)C(N)=O)c2c(OCC(=O)NCC(=O)O)cccc2n1Cc1ccccc1 [Compound 3A, N-[2-[[3-(Aminooxoacetyl)-2-ethyl-1-(phenylmethyl)-1H-indol-4-yl]oxy]acetyl]glycine]	–	–	71
CCc1c(C(=O)C(N)=O)c2c(OCC(=O)N[C@@H](C)C(=O)O)cccc2n1Cc1ccccc1 [Compound 3B, N-[2-[[3-(Aminooxoacetyl)-2-ethyl-1-(phenylmethyl)-1H-indol-4-yl]oxy]acetyl]-L-alanine]	–	–	59
CCc1c(C(=O)C(N)=O)c2c(OCC(=O)N[C@@H](CC(C)C)C(=O)O)cccc2n1Cc1ccccc1 [Compound 3C, N-[2-[[3-(Aminooxoacetyl)-2-ethyl-1-(phenylmethyl)-1H-indol-4-yl]oxy]acetyl]-L-leucine]	–	–	28
CCc1c(C(=O)C(N)=O)c2c(OCC(=O)N[C@@H](CC(=O)O)C(=O)O)cccc2n1Cc1ccccc1 [Compound 3D, N-[2-[[3-(Aminooxoacetyl)-2-ethyl-1-(phenylmethyl)-1H-indol-4-yl]oxy]acetyl]-L-aspartic Acid]	–	–	132
CCc1c(C(=O)C(N)=O)c2c(OCC(=O)N[C@@H](Cc3ccccc3)C(=O)O)cccc2n1Cc1ccccc1 [Compound 3E, N-[2-[[3-(Aminooxoacetyl)-2-ethyl-1-(phenylmethyl)-1H-indol-4-yl]oxy]acetyl]-L-phenylalanine]	–	–	64
CCc1c(C(=O)C(N)=O)c2c(OCC(=O)NC(C(=O)O)C(=O)O)cccc2n1Cc1ccccc1 [Compound 3F, [2-[[3-(Aminooxoacetyl)-2-ethyl-1-(phenylmethyl)-1H-indol-4-yl]oxy]acetamido]malonic Acid]	–	–	44.7
CCc1c(C(=O)C(N)=O)c2c(OCC(=O)N[C@H](C(=O)O)C(C)C)cccc2n1Cc1ccccc1 [Compound 3G, N-[2-[[3-(Aminooxoacetyl)-2-ethyl-1-(phenylmethyl)-1H-indol-4-yl]oxy]acetyl]-L-valine]	–	–	36.4
CCc1c(C(=O)C(N)=O)c2c(OCC(=O)N[C@H](C(=O)O)[C@@H](C)CC)cccc2n1Cc1ccccc1 [Compound 3H, N-[2-[[3-(Aminooxoacetyl)-2-ethyl-1-(phenylmethyl)-1H-indol-4-yl]oxy]acetyl]-L-isoleucine]	–	–	25.1
